Columns and labels:
[1] = test system: velvetleaf; test: Test B pre/postemergence velvetleaf; assay type: in vivo, Abutilon theophrasti
In short: (§1)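 Test chemicals in a non-phytotoxic solvent mixture with surfactant were sprayed preemergence onto planted seeds and postemergence onto plants 2 to 18 cm tall (1- to 4-leaf stage). After twelve to sixteen days in a greenhouse, injury was visually rated against untreated controls from 0 (no effect) to 10 (complete control).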

[2] = test system: bedstraw; test: Test B pre/postemergence bedstraw; assay type: in vivo, Galium aparine
In short: as §1

[3] = test system: corn; test: Test B pre/postemergence corn; assay type: in vivo, Zea mays
In short: as §1

[4] = test system: rice; test: Test B flood test rice; assay type: in vivo, Oryza sativa
In short: (§2)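 Plants were grown to the 2-leaf stage before treatment with test chemical, then held in a greenhouse for twelve to sixteen days. Injury was visually rated against untreated controls on a 0–10 scale, where 0 is no effect and 10 is complete control.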

[5] = test system: morningglory; test: Test B pre/postemergence morningglory; assay type: in vivo, Ipomoea hederacea
In short: as §1

[6] = test system: duck salad; test: Test B flood test duck salad; assay type: in vivo, Heteranthera limosa
In short: as §2

[7] = test system: giant foxtail; test: Test B pre/postemergence giant foxtail; assay type: in vivo, Setaria faberii
In short: as §1

[8] = test system: blackgrass; test: Test B pre/postemergence blackgrass; assay type: in vivo, Alopecurus myosuroides
In short: as §1

[9] = test system: wild oat; test: Test B pre/postemergence wild oat; assay type: in vivo, Avena fatua
In short: as §1

[10] = test system: rape; test: Test B pre/postemergence rape; assay type: in vivo, Brassica napus
In short: as §1

[11] = test system: soybean; test: Test B pre/postemergence soybean; assay type: in vivo, Glycine max
In short: as §1

[12] = test system: surinam grass; test: Test B pre/postemergence surinam grass; assay type: in vivo, Brachiaria decumbens
In short: as §1

[13] = test system: crabgrass; test: Test B pre/postemergence crabgrass; assay type: in vivo, Digitaria sanguinalis
In short: as §1

[14] = test system: pigweed; test: Test B pre/postemergence pigweed; assay type: in vivo, Amaranthus retroflexus
In short: as §1

[15] = test system: wheat; test: Test B pre/postemergence wheat; assay type: in vivo, Triticum aestivum
In short: as §1

[16] = test system: purple nutsedge; test: Test B pre/postemergence purple nutsedge; assay type: in vivo, Cyperus rotundus
In short: as §1

[17] = Postemergence, Rate 62 g/ha, scale 0 to 10, 0 is no effect, 10 is complete control
[18] = Postemergence, Rate 250 g/ha, scale 0 to 10, 0 no effect, 10 complete control
[19] = Preemergence, Rate 31 g/ha, visual rating, scale 0 to 10 (0 no effect, 10 complete control)
[20] = Preemergence, Rate 62 g/ha, scale 0 to 10, 0 is no effect, 10 is complete control
[21] = Preemergence, Rate 125 g/ha, scale 0 to 10 (0 no effect, 10 complete control)
[22] = Preemergence, Rate 250 g/ha, scale of 0 to 10 where 0 is no effect and 10 is complete control
[23] = Rate 125 g/ha, Postemergence, scale 0 to 10, 0 no effect, 10 complete control
[24] = Rate 31 g/ha, Postemergence, scale 0 to 10
[25] = Rate 125 g/ha, Postemergence section (flood test species), scale 0 to 10, 0 no effect, 10 complete control
[26] = Rate 500 g/ha, Postemergence section of Table B, 0 to 10 scale (0 no effect, 10 complete control)
[27] = flood test, listed under Postemergence, Rate 250 g/ha, scale 0 to 10, 0 no effect, 10 complete control

In the case of `COc1ccc(-n2c(=O)on(C(=O)N(c3ccc(F)cc3F)C(C)C)c2=O)c(OC)c1` [Compound 32], the “Velvetleaf plant response rating” value [1, 17] is reported as 0, the “Velvetleaf plant response rating” value [1, 18] is reported as 0 and the “Velvetleaf plant response rating” value [1, 19] is reported as 0. The “Plant response rating, Velvetleaf” value [1, 20] was 0, the “Plant response rating, Velvetleaf” value [1, 21] was 0 and the “Plant response rating, Velvetleaf” value [1, 22] was 0. For the same compound, the “Velvetleaf plant response rating” value [1, 23] was 0, the “Bedstraw plant response rating” value [2, 17] was 0 and the “Bedstraw plant response rating” value [2, 18] was 0. For the same compound, the “Bedstraw plant response rating” value [2, 19] was 0, the “Plant response rating, Bedstraw” value [2, 20] was 0 and the “Plant response rating, Bedstraw” value [2, 21] was 0. The “Plant response rating, Bedstraw” value [2, 22] was 0, the “Bedstraw plant response rating” value [2, 24] was 0 and the “Bedstraw plant response rating” value [2, 23] was 0. The “Corn plant response rating” value [3, 17] was 0, the “Corn plant response rating” value [3, 18] was 0 and the “Corn plant response rating” value [3, 19] was 0. The “Plant response rating, Corn” value [3, 20] was 0, the “Plant response rating, Corn” value [3, 21] was 0 and the “Plant response rating, Corn” value [3, 22] was 0. For the same compound, the “Corn plant response rating” value [3, 24] was 0, the “Corn plant response rating” value [3, 23] was 0 and the “Rice plant response rating” value [4, 17] was 0. For the same compound, the “Rice plant response rating” value [4, 25] was 0, the “Rice plant response rating” value [4, 26] was 0 and the “Rice plant response rating” value [4, 27] was 0. The “Morningglory plant response rating” value [5, 17] was 6, the “Morningglory plant response rating” value [5, 18] was 8 and the “Morningglory plant response rating” value [5, 19] was 0. For the same compound, the “Plant response rating, Morningglory” value [5, 20] was 0, the “Plant response rating, Morningglory” value [5, 21] was 0 and the “Plant response rating, Morningglory” value [5, 22] was 2. For the same compound, the “Morningglory plant response rating” value [5, 24] was 6, the “Morningglory plant response rating” value [5, 23] was 7 and the “Ducksalad plant response rating” value [6, 17] was 0. The “Ducksalad plant response rating” value [6, 25] was 0, the “Ducksalad plant response rating” value [6, 26] was 2 and the “Ducksalad plant response rating” value [6, 27] was 0. The “Giant foxtail plant response rating” value [7, 17] was 0, the “Giant foxtail plant response rating” value [7, 18] was 0 and the “Giant foxtail plant response rating” value [7, 19] was 1. For the same compound, the “Plant response rating, Giant foxtail” value [7, 20] was 4, the “Plant response rating, Giant foxtail” value [7, 21] was 8 and the “Plant response rating, Giant foxtail” value [7, 22] was 9. The “Giant foxtail plant response rating” value [7, 24] was 0, the “Giant foxtail plant response rating” value [7, 23] was 0 and the “Blackgrass plant response rating” value [8, 17] was 0. For the same compound, the “Blackgrass plant response rating” value [8, 18] was 7, the “Blackgrass plant response rating” value [8, 19] was 0 and the “Plant response rating, Blackgrass” value [8, 20] was 1. The “Plant response rating, Blackgrass” value [8, 21] was 2, the “Plant response rating, Blackgrass” value [8, 22] was 4 and the “Blackgrass plant response rating” value [8, 24] was 0. For the same compound, the “Blackgrass plant response rating” value [8, 23] was 0, the “Wild oats plant response rating” value [9, 17] was 0 and the “Wild oats plant response rating” value [9, 18] was 0. The “Wild oats plant response rating” value [9, 19] was 0, the “Plant response rating, Wild oats” value [9, 21] was 0 and the “Plant response rating, Wild oats” value [9, 22] was 2. The “Wild oats plant response rating” value [9, 23] was 0, the “Rape plant response rating” value [10, 17] was 0 and the “Rape plant response rating” value [10, 18] was 0. The “Rape plant response rating” value [10, 19] was 0, the “Plant response rating, Rape” value [10, 20] was 0 and the “Plant response rating, Rape” value [10, 21] was 0. The “Plant response rating, Rape” value [10, 22] was 0, the “Rape plant response rating” value [10, 24] was 0 and the “Rape plant response rating” value [10, 23] was 0. The “Soybean plant response rating” value [11, 17] was 2, the “Soybean plant response rating” value [11, 18] was 2 and the “Soybean plant response rating” value [11, 19] was 0. The “Plant response rating, Soybean” value [11, 20] was 0, the “Plant response rating, Soybean” value [11, 21] was 0 and the “Plant response rating, Soybean” value [11, 22] was 0. The “Soybean plant response rating” value [11, 23] was 2, the “B. signalgrass plant response rating” value [12, 17] was 0 and the “B. signalgrass plant response rating” value [12, 18] was 0. For the same compound, the “B. signalgrass plant response rating” value [12, 19] was 0, the “Plant response rating, B. signalgrass” value [12, 20] was 0 and the “Plant response rating, B. signalgrass” value [12, 21] was 0. The “Plant response rating, B. signalgrass” value [12, 22] was 2, the “B. signalgrass plant response rating” value [12, 24] was 0 and the “B. signalgrass plant response rating” value [12, 23] was 0. The “Crabgrass plant response rating” value [13, 17] was 0, the “Crabgrass plant response rating” value [13, 18] was 3 and the “Crabgrass plant response rating” value [13, 19] was 0. For the same compound, the “Plant response rating, Crabgrass” value [13, 20] was 4, the “Plant response rating, Crabgrass” value [13, 21] was 6 and the “Plant response rating, Crabgrass” value [13, 22] was 9. For the same compound, the “Crabgrass plant response rating” value [13, 24] was 0, the “Crabgrass plant response rating” value [13, 23] was 2 and the “Redroot pigweed plant response rating” value [14, 17] was 0. For the same compound, the “Redroot pigweed plant response rating” value [14, 18] was 0, the “Redroot pigweed plant response rating” value [14, 19] was 0 and the “Plant response rating, Redroot pigweed” value [14, 20] was 0. The “Plant response rating, Redroot pigweed” value [14, 21] was 0, the “Plant response rating, Redroot pigweed” value [14, 22] was 0 and the “Redroot pigweed plant response rating” value [14, 24] was 0. For the same compound, the “Redroot pigweed plant response rating” value [14, 23] was 0, the “Wheat plant response rating” value [15, 17] was 0 and the “Wheat plant response rating” value [15, 18] was 0. The “Wheat plant response rating” value [15, 19] was 0, the “Plant response rating, Wheat” value [15, 20] was 0 and the “Plant response rating, Wheat” value [15, 21] was 0. For the same compound, the “Plant response rating, Wheat” value [15, 22] was 0, the “Wheat plant response rating” value [15, 23] was 0 and the “Nutsedge plant response rating” value [16, 17] was 0. The “Nutsedge plant response rating” value [16, 18] was 0, the “Nutsedge plant response rating” value [16, 19] was 0 and the “Plant response rating, Nutsedge” value [16, 20] was 0. The “Plant response rating, Nutsedge” value [16, 21] was 0, the “Plant response rating, Nutsedge” value [16, 22] was 0 and the “Nutsedge plant response rating” value [16, 24] was 0. For the same compound, the “Nutsedge plant response rating” value [16, 23] was 0.
